ChEMBL document CHEMBL4507302, “Data for DCP probe TP-020” (2021)

Columns and labels:
[1] = test system: Tyrosine-protein kinase ABL1 (Homo sapiens), P00519 [T315I]; conditions: Compound concentration 1000.0 nM
[2] = biological target: Activin receptor type-2A (Homo sapiens) (UniProt P27037); conditions: Compound concentration 1000.0 nM
[3] = test system: ALK tyrosine kinase receptor (Homo sapiens), Q9UM73 [C1156Y]; conditions: Compound concentration 1000.0 nM
[4] = biological target: Mitogen-activated protein kinase kinase kinase 5 (Homo sapiens) (UniProt Q99683); conditions: Compound concentration 1000.0 nM
[5] = biological target: Tyrosine-protein kinase BTK (Homo sapiens) (UniProt Q06187); conditions: Compound concentration 1000.0 nM
[6] = biological target: Cyclin-dependent kinase 8 (Homo sapiens) (UniProt P49336); conditions: Compound concentration 1000.0 nM
[7] = biological target: Cyclin-dependent kinase-like 2 (Homo sapiens) (UniProt Q92772); conditions: Compound concentration 1000.0 nM
Cyclin-dependent kinase-like 2 (Homo sapiens), sequence (Q92772 whole entry): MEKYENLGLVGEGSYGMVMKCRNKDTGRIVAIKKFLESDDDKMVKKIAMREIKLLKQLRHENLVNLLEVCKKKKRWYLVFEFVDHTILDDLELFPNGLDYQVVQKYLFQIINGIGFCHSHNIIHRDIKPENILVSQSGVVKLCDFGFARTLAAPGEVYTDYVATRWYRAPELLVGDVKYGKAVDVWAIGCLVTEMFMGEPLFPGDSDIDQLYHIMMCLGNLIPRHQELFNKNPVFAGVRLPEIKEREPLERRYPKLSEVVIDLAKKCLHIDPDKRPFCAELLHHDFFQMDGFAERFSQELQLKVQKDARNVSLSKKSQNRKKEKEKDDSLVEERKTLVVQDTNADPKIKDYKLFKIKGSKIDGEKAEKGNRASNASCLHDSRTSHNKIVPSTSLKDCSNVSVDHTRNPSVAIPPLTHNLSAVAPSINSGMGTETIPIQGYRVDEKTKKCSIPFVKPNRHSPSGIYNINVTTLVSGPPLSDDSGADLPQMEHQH

[8] = biological target: Citron Rho-interacting kinase (Homo sapiens) (UniProt O14578); conditions: Compound concentration 1000.0 nM
[9] = biological target: Tyrosine-protein kinase CSK (Homo sapiens) (UniProt P41240); conditions: Compound concentration 1000.0 nM
[10] = biological target: Casein kinase I isoform alpha-like (Homo sapiens) (UniProt Q8N752); conditions: Compound concentration 1000.0 nM
[11] = biological target: Dual specificity tyrosine-phosphorylation-regulated kinase 1B (Homo sapiens) (UniProt Q9Y463); conditions: Compound concentration 1000.0 nM
[12] = test system: Epidermal growth factor receptor (Homo sapiens), P00533 [G719S]; conditions: Compound concentration 1000.0 nM
[13] = test system: Epidermal growth factor receptor (Homo sapiens), P00533 [L858R,T790M]; conditions: Compound concentration 1000.0 nM
[14] = biological target: Ephrin type-A receptor 2 (Homo sapiens) (UniProt P29317); conditions: Compound concentration 1000.0 nM
[15] = biological target: Mitogen-activated protein kinase 3 (Homo sapiens) (UniProt P27361); conditions: Compound concentration 1000.0 nM
Mitogen-activated protein kinase 3 (Homo sapiens), sequence (P27361 whole entry): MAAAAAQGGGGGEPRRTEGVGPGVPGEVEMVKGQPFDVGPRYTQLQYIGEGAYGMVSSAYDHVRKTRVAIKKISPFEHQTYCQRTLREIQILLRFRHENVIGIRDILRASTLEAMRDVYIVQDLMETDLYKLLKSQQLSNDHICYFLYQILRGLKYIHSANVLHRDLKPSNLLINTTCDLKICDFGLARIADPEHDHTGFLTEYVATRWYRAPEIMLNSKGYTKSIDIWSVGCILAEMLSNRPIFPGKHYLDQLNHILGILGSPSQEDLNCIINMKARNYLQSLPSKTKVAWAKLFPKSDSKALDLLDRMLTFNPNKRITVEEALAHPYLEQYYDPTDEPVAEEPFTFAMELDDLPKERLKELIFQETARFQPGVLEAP

[16] = biological target: Fibroblast growth factor receptor 2 (Homo sapiens) (UniProt P21802); conditions: Compound concentration 1000.0 nM
Fibroblast growth factor receptor 2 (Homo sapiens), sequence (P21802 22-821 limits assumed): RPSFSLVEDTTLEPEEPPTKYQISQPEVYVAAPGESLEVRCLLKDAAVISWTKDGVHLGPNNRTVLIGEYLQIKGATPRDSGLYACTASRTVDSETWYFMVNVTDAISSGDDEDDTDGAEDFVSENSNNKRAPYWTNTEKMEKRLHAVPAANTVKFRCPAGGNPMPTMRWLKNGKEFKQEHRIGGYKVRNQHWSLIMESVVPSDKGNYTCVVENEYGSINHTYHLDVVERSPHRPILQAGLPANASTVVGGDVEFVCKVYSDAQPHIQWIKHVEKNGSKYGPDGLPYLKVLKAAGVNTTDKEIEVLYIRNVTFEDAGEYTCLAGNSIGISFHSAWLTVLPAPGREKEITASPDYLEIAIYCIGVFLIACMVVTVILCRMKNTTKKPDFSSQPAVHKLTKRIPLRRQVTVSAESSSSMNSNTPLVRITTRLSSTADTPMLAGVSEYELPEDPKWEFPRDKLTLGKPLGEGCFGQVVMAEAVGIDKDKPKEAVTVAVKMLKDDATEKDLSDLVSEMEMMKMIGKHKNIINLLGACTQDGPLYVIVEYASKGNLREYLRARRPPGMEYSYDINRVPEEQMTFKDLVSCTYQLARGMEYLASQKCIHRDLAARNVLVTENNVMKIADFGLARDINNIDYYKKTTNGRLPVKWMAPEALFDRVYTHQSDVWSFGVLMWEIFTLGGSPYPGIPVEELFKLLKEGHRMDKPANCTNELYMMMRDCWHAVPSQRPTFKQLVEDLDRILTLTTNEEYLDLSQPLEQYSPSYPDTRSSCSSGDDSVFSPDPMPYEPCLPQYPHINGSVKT

[17] = biological target: Fibroblast growth factor receptor 4 (Homo sapiens) (UniProt P22455); conditions: Compound concentration 1000.0 nM
Fibroblast growth factor receptor 4 (Homo sapiens), sequence (P22455 22-802 limits assumed): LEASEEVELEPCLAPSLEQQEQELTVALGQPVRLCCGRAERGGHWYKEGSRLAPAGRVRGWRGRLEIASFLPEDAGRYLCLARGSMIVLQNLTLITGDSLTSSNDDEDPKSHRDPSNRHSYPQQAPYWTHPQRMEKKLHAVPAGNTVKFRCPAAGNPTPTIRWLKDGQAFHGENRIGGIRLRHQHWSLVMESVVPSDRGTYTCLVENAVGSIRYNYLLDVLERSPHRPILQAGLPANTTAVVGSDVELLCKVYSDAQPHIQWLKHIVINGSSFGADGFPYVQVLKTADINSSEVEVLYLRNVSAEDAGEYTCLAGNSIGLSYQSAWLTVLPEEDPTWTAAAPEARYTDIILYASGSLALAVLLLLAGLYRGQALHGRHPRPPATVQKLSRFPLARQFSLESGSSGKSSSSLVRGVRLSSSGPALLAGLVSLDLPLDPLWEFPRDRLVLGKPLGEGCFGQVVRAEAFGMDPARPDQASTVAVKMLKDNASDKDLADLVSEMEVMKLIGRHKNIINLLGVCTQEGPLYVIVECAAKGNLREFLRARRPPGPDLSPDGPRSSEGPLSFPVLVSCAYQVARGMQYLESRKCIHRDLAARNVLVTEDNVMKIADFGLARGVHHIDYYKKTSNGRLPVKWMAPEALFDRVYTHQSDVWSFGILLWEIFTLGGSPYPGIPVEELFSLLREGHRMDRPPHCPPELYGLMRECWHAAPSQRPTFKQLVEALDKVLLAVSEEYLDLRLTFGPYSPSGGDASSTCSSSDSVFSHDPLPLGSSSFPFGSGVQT

[18] = biological target: Tyrosine-protein kinase Fgr (Homo sapiens) (UniProt P09769); conditions: Compound concentration 1000.0 nM
[19] = test system: Receptor-type tyrosine-protein kinase FLT3 (Homo sapiens), P36888 [D835V]; conditions: Compound concentration 1000.0 nM
[20] = biological target: Glycogen synthase kinase-3 beta (Homo sapiens) (UniProt P49841); conditions: Compound concentration 1000.0 nM
[21] = biological target: Inhibitor of nuclear factor kappa-B kinase subunit alpha (Homo sapiens) (UniProt O15111); conditions: Compound concentration 1000.0 nM
[22] = biological target: Tyrosine-protein kinase JAK1 (Homo sapiens) (UniProt P23458); conditions: Compound concentration 1000.0 nM
[23] = biological target: Serine/threonine-protein kinase LATS1 (Homo sapiens) (UniProt O95835); conditions: Compound concentration 1000.0 nM
[24] = biological target: Tyrosine-protein kinase Lck (Homo sapiens) (UniProt P06239); conditions: Compound concentration 1000.0 nM
[25] = biological target: Mitogen-activated protein kinase kinase kinase 9 (Homo sapiens) (UniProt P80192); conditions: Compound concentration 1000.0 nM
[26] = biological target: Mitogen-activated protein kinase kinase kinase 11 (Homo sapiens) (UniProt Q16584); conditions: Compound concentration 1000.0 nM
[27] = biological target: Macrophage-stimulating protein receptor (Homo sapiens) (UniProt Q04912); conditions: Compound concentration 1000.0 nM
[28] = biological target: Serine/threonine-protein kinase 24 (Homo sapiens) (UniProt Q9Y6E0); conditions: Compound concentration 1000.0 nM
[29] = biological target: Serine/threonine-protein kinase mTOR (Homo sapiens) (UniProt P42345); conditions: Compound concentration 1000.0 nM
[30] = biological target: Myosin light chain kinase family member 4 (Homo sapiens) (UniProt Q86YV6); conditions: Compound concentration 1000.0 nM
[31] = biological target: Serine/threonine-protein kinase Nek11 (Homo sapiens) (UniProt Q8NG66); conditions: Compound concentration 1000.0 nM
[32] = test system: Phosphatidylinositol 4,5-bisphosphate 3-kinase catalytic subunit alpha isoform (Homo sapiens), P42336 [E545K]; conditions: Compound concentration 1000.0 nM
[33] = biological target: Serine/threonine-protein kinase PLK1 (Homo sapiens) (UniProt P53350); conditions: Compound concentration 1000.0 nM
[34] = biological target: Serine/threonine-protein kinase D2 (Homo sapiens) (UniProt Q9BZL6); conditions: Compound concentration 1000.0 nM
[35] = test system: Proto-oncogene tyrosine-protein kinase receptor Ret (Homo sapiens), P07949 [M918T]; conditions: Compound concentration 1000.0 nM
[36] = biological target: Ribosomal protein S6 kinase alpha-5 (Homo sapiens) (UniProt O75582); conditions: Compound concentration 1000.0 nM
Ribosomal protein S6 kinase alpha-5 (Homo sapiens), sequence (O75582 whole entry, looked up): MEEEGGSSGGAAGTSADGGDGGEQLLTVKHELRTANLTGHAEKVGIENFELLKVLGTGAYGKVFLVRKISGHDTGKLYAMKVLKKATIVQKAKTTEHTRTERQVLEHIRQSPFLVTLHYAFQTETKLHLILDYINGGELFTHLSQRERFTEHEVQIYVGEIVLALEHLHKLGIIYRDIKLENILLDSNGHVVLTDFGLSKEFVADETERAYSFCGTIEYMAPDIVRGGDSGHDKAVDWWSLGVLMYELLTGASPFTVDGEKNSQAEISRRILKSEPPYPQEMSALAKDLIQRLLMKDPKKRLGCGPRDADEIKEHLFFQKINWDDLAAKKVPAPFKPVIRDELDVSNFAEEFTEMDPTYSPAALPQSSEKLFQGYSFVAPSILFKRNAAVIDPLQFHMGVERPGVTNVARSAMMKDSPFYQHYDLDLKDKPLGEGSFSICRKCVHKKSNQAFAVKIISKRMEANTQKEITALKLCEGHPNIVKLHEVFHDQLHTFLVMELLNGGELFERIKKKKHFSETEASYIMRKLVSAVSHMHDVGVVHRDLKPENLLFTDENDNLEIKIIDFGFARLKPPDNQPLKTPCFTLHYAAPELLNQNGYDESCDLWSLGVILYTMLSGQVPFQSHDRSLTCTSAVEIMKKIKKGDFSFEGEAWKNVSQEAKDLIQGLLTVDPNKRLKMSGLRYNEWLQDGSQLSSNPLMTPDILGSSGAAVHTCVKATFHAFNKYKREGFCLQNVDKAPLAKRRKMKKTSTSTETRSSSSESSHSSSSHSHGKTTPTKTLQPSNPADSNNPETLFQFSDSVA

[37] = biological target: Serine/threonine-protein kinase Sgk1 (Homo sapiens) (UniProt O00141); conditions: Compound concentration 1000.0 nM
[38] = biological target: Serine/threonine-protein kinase TAO1 (Homo sapiens) (UniProt Q7L7X3); conditions: Compound concentration 1000.0 nM
[39] = biological target: Serine/threonine-protein kinase WNK3 (Homo sapiens) (UniProt Q9BYP7); conditions: Compound concentration 1000.0 nM
Serine/threonine-protein kinase WNK3 (Homo sapiens), sequence (Q9BYP7 whole entry): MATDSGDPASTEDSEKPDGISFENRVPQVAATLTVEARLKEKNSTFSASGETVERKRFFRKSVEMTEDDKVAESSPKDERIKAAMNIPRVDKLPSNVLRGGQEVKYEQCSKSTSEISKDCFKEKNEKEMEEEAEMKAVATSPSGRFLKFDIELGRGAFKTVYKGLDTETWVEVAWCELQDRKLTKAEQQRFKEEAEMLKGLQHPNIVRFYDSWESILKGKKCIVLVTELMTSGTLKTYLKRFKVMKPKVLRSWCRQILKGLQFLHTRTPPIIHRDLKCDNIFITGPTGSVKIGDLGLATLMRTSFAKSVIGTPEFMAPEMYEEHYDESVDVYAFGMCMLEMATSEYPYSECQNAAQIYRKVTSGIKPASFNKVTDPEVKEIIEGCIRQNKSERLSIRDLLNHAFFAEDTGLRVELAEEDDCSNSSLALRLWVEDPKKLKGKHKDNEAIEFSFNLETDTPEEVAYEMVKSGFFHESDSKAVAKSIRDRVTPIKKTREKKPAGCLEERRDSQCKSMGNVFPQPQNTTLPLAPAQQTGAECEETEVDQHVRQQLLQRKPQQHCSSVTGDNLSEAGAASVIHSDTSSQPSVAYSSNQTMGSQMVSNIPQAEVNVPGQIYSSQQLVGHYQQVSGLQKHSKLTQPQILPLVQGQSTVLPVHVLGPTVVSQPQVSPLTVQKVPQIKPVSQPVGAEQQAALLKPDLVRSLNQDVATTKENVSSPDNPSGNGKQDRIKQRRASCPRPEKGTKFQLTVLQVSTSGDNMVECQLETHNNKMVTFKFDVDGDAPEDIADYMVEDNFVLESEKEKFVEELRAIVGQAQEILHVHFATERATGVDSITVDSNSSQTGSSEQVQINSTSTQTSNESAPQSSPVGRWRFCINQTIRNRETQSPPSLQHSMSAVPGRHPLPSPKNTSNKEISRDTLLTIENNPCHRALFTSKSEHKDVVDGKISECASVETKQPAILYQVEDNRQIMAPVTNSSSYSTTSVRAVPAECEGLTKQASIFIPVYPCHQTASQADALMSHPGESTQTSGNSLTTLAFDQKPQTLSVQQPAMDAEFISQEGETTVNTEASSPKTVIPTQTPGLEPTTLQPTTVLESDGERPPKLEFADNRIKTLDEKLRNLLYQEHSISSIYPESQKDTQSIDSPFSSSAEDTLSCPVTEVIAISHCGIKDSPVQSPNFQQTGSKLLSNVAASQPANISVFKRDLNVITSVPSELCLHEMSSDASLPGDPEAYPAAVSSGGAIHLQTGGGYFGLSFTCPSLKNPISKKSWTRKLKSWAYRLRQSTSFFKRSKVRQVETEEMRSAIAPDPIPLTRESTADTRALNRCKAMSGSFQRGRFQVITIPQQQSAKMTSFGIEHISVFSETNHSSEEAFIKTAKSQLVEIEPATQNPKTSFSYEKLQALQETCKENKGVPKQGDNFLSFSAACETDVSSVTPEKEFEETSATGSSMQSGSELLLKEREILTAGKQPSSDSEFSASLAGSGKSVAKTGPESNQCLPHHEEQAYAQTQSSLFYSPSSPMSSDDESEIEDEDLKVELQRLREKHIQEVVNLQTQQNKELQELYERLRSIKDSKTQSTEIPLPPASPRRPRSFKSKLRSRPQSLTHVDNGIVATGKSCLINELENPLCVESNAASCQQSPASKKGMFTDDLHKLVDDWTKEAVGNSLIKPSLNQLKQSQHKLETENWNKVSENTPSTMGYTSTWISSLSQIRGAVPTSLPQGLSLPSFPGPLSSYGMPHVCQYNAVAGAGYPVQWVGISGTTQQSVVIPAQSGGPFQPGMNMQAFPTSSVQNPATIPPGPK

[40] = biological target: Serine/threonine-protein kinase 32C (Homo sapiens) (UniProt Q86UX6); conditions: Compound concentration 1000.0 nM
[41] = biological target: 5-hydroxytryptamine receptor 1E (Homo sapiens) (UniProt P28566); conditions: Compound concentration 10.0 uM
[42] = biological target: D(3) dopamine receptor (Homo sapiens) (UniProt P35462); conditions: Compound concentration 10.0 uM
[43] = biological target: GABA-A receptor; anion channel (Rattus norvegicus) (UniProt O09028+P15431+P18506+P18508+P19969+P20236+P23574+P23576+P28471+P28473+P30191+P62813+P63079+P63138+Q91ZM7+Q9ES14); conditions: Compound concentration 10.0 uM
[44] = biological target: Alpha-1B adrenergic receptor (Homo sapiens) (UniProt P35368); conditions: Compound concentration 10.0 uM

Nc1cnc(N2CCc3cc(S(=O)(=O)Nc4c(F)cc(Cl)cc4F)cc(N4CCCC4=O)c32)nc1
inactive: residual activity [1] 100% | residual activity [2] 67% | residual activity [3] 100% | residual activity [4] 83% | residual activity [5] 100% | residual activity [6] 100% | residual activity [7] 85% | residual activity [8] 91% | residual activity [9] 99% | residual activity [10] 100% | residual activity [11] 100% | residual activity [12] 75% | residual activity [13] 77% | residual activity [14] 100% | residual activity [15] 91% | residual activity [16] 100% | residual activity [17] 100% | residual activity [18] 100% | residual activity [19] 100% | residual activity [20] 100% | residual activity [21] 100% | residual activity [22] 100% | residual activity [23] 100% | residual activity [24] 100% | residual activity [25] 100% | residual activity [26] 100% | residual activity [27] 98% | residual activity [28] 100% | residual activity [29] 100% | residual activity [30] 100% | residual activity [31] 100% | residual activity [32] 100% | residual activity [33] 100% | residual activity [34] 100% | residual activity [35] 100% | residual activity [36] 95% | residual activity [37] 100% | residual activity [38] 80% | residual activity [39] 100% | residual activity [40] 100% | inhibition [41] -4.55% | inhibition [42] 7.41% | inhibition [43] 20.5% | inhibition [44] 4.68%

Cn1nc(C(F)(F)F)cc1-c1cnc(N2CCc3cc(S(=O)(=O)Nc4c(F)cc(Cl)cc4F)cc(N4CCCC4=O)c32)nc1 [TP-020]
inactive: residual activity [1] 74% | residual activity [2] 83% | residual activity [3] 72% | residual activity [4] 100% | residual activity [5] 85% | residual activity [6] 96% | residual activity [7] 100% | residual activity [8] 100% | residual activity [9] 93% | residual activity [10] 100% | residual activity [11] 100% | residual activity [12] 100% | residual activity [13] 100% | residual activity [14] 100% | residual activity [15] 100% | residual activity [16] 100% | residual activity [17] 69% | residual activity [18] 90% | residual activity [19] 91% | residual activity [20] 100% | residual activity [21] 99% | residual activity [22] 100% | residual activity [23] 99% | residual activity [24] 100% | residual activity [25] 100% | residual activity [26] 100% | residual activity [27] 100% | residual activity [28] 90% | residual activity [29] 78% | residual activity [30] 99% | residual activity [31] 78% | residual activity [32] 82% | residual activity [33] 93% | residual activity [34] 95% | residual activity [35] 100% | residual activity [36] 86% | residual activity [37] 100% | residual activity [38] 99% | residual activity [39] 97% | residual activity [40] 100% | inhibition [41] 14.8% | inhibition [42] 2.14% | inhibition [43] 7.89% | inhibition [44] 4.33%
